Laboratory results published in patent US9931315B2, “Method of selectively inhibiting Ras-mediated tumor growth in humans” (ADT PHARMACEUTICALS, INC., priority 2014, dated 2018).
Read-outs that look alike come from different tables or passages of the source.

Key:
Format in all cases: cell-based, human
[1] = tested on: HT-29 colon cancer cells; experiment: Cell growth inhibition (CellTiter-Glo ATP assay), HT-29 cells with wild-type Ras; conditions: Homo sapiens, HT-29
Experimental: (§1) This example illustrates cell growth assays employed in the present invention.
(§2) Normal rat kidney (NRK) and Ki-Ras transformed NRK cells (K-NRK) were obtained from ATCC, and were cultured according to supplier recommendations. CellTiter-Glo ATP cell growth assay reagents were obtained from Promega and used according to the manufacturer's protocol. Inhibitors of EGFR, Raf, and MEK were obtained from Selleck Chemicals. Cells were plated at a density of 5,000 cells per well in 96-well microplates or 1,250 cells per well in 384-well plates, and allowed to attach for at least 4 h. Test compounds were dissolved in dimethyl sulfoxide (DMSO), and this working stock was further diluted in growth medium for addition to cell cultures. Serial dilutions of the test compound were prepared in growth medium containing an equal amount of DMSO not exceeding 0.2% final concentration. Each compound concentration was tested in at least 3 separate samples per cell line. At the end of a 3-day treatment period, growth inhibition was analyzed using a bioluminescent assay of ATP concentration (Promega CellTiter-Glo) according to the manufacturer's protocol. Resulting luminescence was measured using the luminescence cartridge of the Molecular Devices Spectramax Paradigm microplate reader. Relative growth inhibition for each sample was determined by comparison with the values obtained for vehicle treated control samples. Growth inhibition values were plotted with the GraphPad Prism5 software using the 4-parameter logistic fit to obtain IC50 values, which corresponds to the growth inhibitory potency of the compound.
(§3) This example illustrates effects of exemplary compounds of the present invention on cancer cells having activated or mutated Ras compared to wild-type (WT) Ras. […] A549 lung cancer cells, which harbor a mutation in the K-Ras oncogene were treated for three days with the compounds.
(§4) Cells were seeded in 384-well plates and allowed to attach. Ten-fold serial dilutions of compounds were tested. Each compound concentration was tested in at least 3 separate samples per cell line.

[2] = tested on: SW-480 cells; experiment: Cell growth inhibition (CellTiter-Glo), SW-480 colorectal cells with activated Ras; conditions: for IC50: Homo sapiens, SW480, growth inhibition, 384-well plates, Table 3, read-out: SW-480 (Ras Activated IC50); for Selectivity Caco-2/SW-480: ratio IC50 Caco-2 (WT Ras) / IC50 SW-480 (Ras activated)
Experimental: as §1, §2
The growth inhibitory activity of the compounds was tested using the CellTiter-Glo assay. Cells were seeded in 384-well plates and allowed to attach, then ten-fold serial dilutions of compounds were tested. Each concentration was tested in at least 3 separate samples per cell line.
as §4

[3] = tested on: A549 lung cancer cells; experiment: Cell growth inhibition (CellTiter-Glo ATP assay), A549 cells with mutant K-Ras; conditions: for IC50: Homo sapiens, A549, 72 h, growth inhibition, three days treatment, K-Ras mutant lung cancer cells, read-out: A549 (Ras-activated) IC50; for Selectivity HT-29/A549: ratio IC50 HT-29 (WT Ras) / IC50 A549 (Ras-activated)
Experimental: This example illustrates cell growth assays employed in the present invention. Cells used in such assays included A-549, HT-29, MDA-MB-231, Colo-205, Caco2, HCT-116, SW-480, and DLD-1 human cancer cells obtained from the American Type Culture Collection (ATCC).
as §2, with “Human tumor cells were cultured using standard methods in RPMI-1640 growth medium supplemented with 5% fetal bovine serum (FBS). Normal” for “Normal”
as §3

[4] = tested on: Caco-2 cells; experiment: Cell growth inhibition (CellTiter-Glo), Caco-2 colorectal cells with wild-type Ras; conditions: Homo sapiens, Caco-2; growth inhibition, 384-well plates, Table 3; read-out: Caco-2 (WT Ras) IC50
[5] = tested on: HCT-116 colon tumor cells; experiment: Cell growth inhibition (CellTiter-Glo), HCT-116 colon tumor cells expressing mutant Ras; conditions: ratio IC50 HT-29 (WT Ras) / IC50 HCT-116 (mutant Ras), 5000 cells/well, 96-well plates
Experimental: This example illustrates cell growth assays employed in the present invention. […] Normal rat kidney (NRK) and Ki-Ras transformed NRK cells (K-NRK) were obtained from ATCC, and were cultured according to supplier recommendations. CellTiter-Glo ATP cell growth assay reagents were obtained from Promega and used according to the manufacturer's protocol. Inhibitors of EGFR, Raf, and MEK were obtained from Selleck Chemicals. Cells were plated at a density of 5,000 cells per well in 96-well microplates or 1,250 cells per well in 384-well plates, and allowed to attach for at least 4 h. Test compounds were dissolved in dimethyl sulfoxide (DMSO), and this working stock was further diluted in growth medium for addition to cell cultures. Serial dilutions of the test compound were prepared in growth medium containing an equal amount of DMSO not exceeding 0.2% final concentration. Each compound concentration was tested in at least 3 separate samples per cell line. At the end of a 3-day treatment period, growth inhibition was analyzed using a bioluminescent assay of ATP concentration (Promega CellTiter-Glo) according to the manufacturer's protocol. Resulting luminescence was measured using the luminescence cartridge of the Molecular Devices Spectramax Paradigm microplate reader. Relative growth inhibition for each sample was determined by comparison with the values obtained for vehicle treated control samples. […] This example illustrates use of well-established human colon tumor cell lines with widely divergent Ras activation status to determine selectivity values for exemplary compounds of the present invention. […] Cells were plated at 5000 cells/well in 96-well plates, and viable cell numbers were measured using the Cell Titer Glo ATP luminescence assay (Promega). […] Cells were seeded in 384-well plates and allowed to attach. Ten-fold serial dilutions of compounds were tested. Each compound concentration was tested in at least 3 separate samples per cell line.

[6] = growth inhibition, colon cancer cells with wild-type Ras, Table 2, read-out: HT-29 (WT Ras) IC50

| Structure (SMILES) | IC50 [1, 6] [nM] | IC50 [2] [nM] | IC50 [3] [nM] | IC50 [4] [nM] | IC50 ([1]; known Ras pathway inhibitors, 384-well plates, Table 4, read-out: HT-29 IC50) [nM] | Selectivity Caco-2/SW-480 [2] | Selectivity HT-29/A549 [3] | HT-29/HCT-116 selectivity values [5] |
| --- | --- | --- | --- | --- | --- | --- | --- | --- |
| COc1cc(/C=C2/C(C)=C(CC(=O)NCc3ccco3)c3cc(F)ccc32)cc(OC)c1OC=O [Compound 002, (Z)-2-(5-fluoro-1-(4-formoxy-3,5-dimethoxybenzylidene)-2-methyl-1H-inden-3-yl)-N-(furan-2-ylmethyl)acetamide] |  |  |  |  |  |  |  | 112 |
| COc1ccc2c(c1)C(CC(=O)Nc1cccnc1)=C(C)/C2=C/c1cc(OC)c(O)c(OC)c1 [Compound 004, (Z)-2-(1-(4-hydroxy-3,5-dimethoxybenzylidene)-5-methoxy-2-methyl-1H-inden-3-yl)-N-(pyridin-3-yl)acetamide] | 916 | 877 | 79 | 1600 |  | 2 | 12 |  |
| COc1ccc2c(c1)C(CC(=O)NC1CCN(C)C1)=C(C)/C2=C/c1cc(OC)c(O)c(OC)c1 (stereo not shown) [Compound 005, (Z)-2-(1-(4-hydroxy-3,5-dimethoxybenzylidene)-5-methoxy-2-methyl-1H-inden-3-yl)-N-(1-methylpyrrolidin-3-yl)acetamide] | 7190 |  | 5940 |  |  |  | 1 |  |
| COc1ccc2c(c1)C(CC(=O)NCc1cccnc1)=C(C)/C2=C/c1cc(OC)c(O)c(OC)c1 [Compound 009, (Z)-2-(1-(4-hydroxy-3,5-dimethoxybenzylidene)-5-methoxy-2-methyl-1H-inden-3-yl)-N-(pyridin-3-ylmethyl)acetamide] | 4830 | 223 | 353 | 2610 |  | 12 | 14 |  |
| COc1ccc2c(c1)C(CC(=O)NCc1ccco1)=C(C)/C2=C/c1ccc(O)c(OC)c1 [Compound 012, (Z)—N-(furan-2-ylmethyl)-2-(1-(4-hydroxy-3-methoxybenzylidene)-5-methoxy-2-methyl-1H-inden-3-yl)acetamide] | 900 |  | 170 |  |  |  | 5 |  |
| COc1cc(/C=C2/C(C)=C(CC(=O)NCc3ccccc3)c3cc(F)ccc32)cc(OC)c1O [Compound 015, (Z)—N-benzyl-2-(5-fluoro-1-(4-hydroxy-3,5-dimethoxybenzylidene)-2-methyl-1H-inden-3-yl)acetamide] |  |  |  |  |  |  |  | 80 |
| COc1cc(/C=C2/C(C)=C(CC(=O)NCc3cccn3C)c3cc(F)ccc32)cc(OC)c1O [Compound 019, (Z)-2-(5-fluoro-1-(4-hydroxy-3,5-dimethoxybenzylidene)-2-methyl-1H-inden-3-yl)-N-((1-methyl-1H-pyrrol-2-yl)methyl)acetamide] |  |  |  |  |  |  |  | 188 |
| COc1ccc2c(c1)C(CC(=O)NCc1ccc[nH]1)=C(C)/C2=C/c1cc(OC)c(O)c(OC)c1 [Compound 022, (Z)—N-((1H-pyrrol-2-yl)methyl)-2-(1-(4-hydroxy-3,5-dimethoxybenzylidene)-5-methoxy-2-methyl-1H-inden-3-yl)acetamide] |  |  |  |  |  |  |  | 117 |
| COc1cc(/C=C2/C(C)=C(CC(=O)NCc3ccco3)c3cc(F)ccc32)cc(OC)c1OS(C)(=O)=O [Compound 029, (Z)-2-(5-fluoro-1-(4-mesyloxy-3,5-dimethoxybenzylidene)-2-methyl-1H-inden-3-yl)-N-(furan-2-ylmethyl)acetamide] |  |  |  |  |  |  |  | 35 |
| COc1cc(/C=C2/C(C)=C(CC(=O)Nc3ccccc3)c3cc(F)ccc32)cc(OC)c1O [Compound 035, (Z)-2-(5-fluoro-1-(4-hydroxy-3,5-dimethoxybenzylidene)-2-methyl-1H-inden-3-yl)-N-phenylacetamide] |  |  |  |  |  |  |  | 31 |
| OCCn1cc(-c2ccc3c(c2)CC/C3=N\O)c(-c2ccncc2)n1 [GDC0879, reference compound] |  |  |  |  | 23600 |  |  |  |

Now from value to compound, other results behind:

| IC50 [1, 6] [nM] | IC50 [2] [nM] | IC50 [3] [nM] | IC50 [4] [nM] | IC50 ([1]; known Ras pathway inhibitors, 384-well plates, Table 4, read-out: HT-29 IC50) [nM] | Structure (SMILES) | Selectivity Caco-2/SW-480 [2] | Selectivity HT-29/A549 [3] | HT-29/HCT-116 selectivity values [5] |
| --- | --- | --- | --- | --- | --- | --- | --- | --- |
| 6280 | 435 | 716 | 1100 |  | COc1ccc2c(c1)C(CC(=O)NCc1ccco1)=C(C)/C2=C/c1cc(C)c(O)c(C)c1 [Compound 001, (Z)—N-(furan-2-ylmethyl)-2-(1-(4-hydroxy-3,5-dimethylbenzylidene)-5-methoxy-2-methyl-1H-inden-3-yl)acetamide] | 3 | 9 |  |
| 4120 |  | 3650 |  |  | COc1ccc2c(c1)C(CC(=O)NCCN(C)C)=C(C)/C2=C/c1cc(OC)c(O)c(OC)c1 [Compound 003, (Z)—N-(2-(dimethylamino)ethyl)-2-(1-(4-hydroxy-3,5-dimethoxybenzylidene)-5-methoxy-2-methyl-1H-inden-3-yl)acetamide] |  | 1 |  |
| 1540 | 139 | 167 | 1330 |  | COc1cc2c(cc1OC)/C(=C\c1cc(OC)c(O)c(OC)c1)C(C)=C2CC(=O)NCc1ccco1 [Compound 008, (Z)—N-(furan-2-ylmethyl)-2-(1-(4-hydroxy-3,5-dimethoxybenzylidene)-5,6-dimethoxy-2-methyl-1H-inden-3-yl)acetamide] | 10 | 9 |  |
| 730 |  | 300 |  |  | COc1ccc2c(c1)C(CC(=O)NCc1ccco1)=C(C)/C2=C/c1cc(Br)c(O)c(OC)c1 [Compound 013, (Z)-2-(1-(3-bromo-4-hydroxy-5-methoxybenzylidene)-5-methoxy-2-methyl-1H-inden-3-yl)-N-(furan-2-ylmethyl)acetamide] |  | 2 |  |
| 500 |  | 110 |  |  | COc1ccc2c(c1)C(CC(=O)NCc1ccco1)=C(C)/C2=C/c1cc(Cl)c(O)c(OC)c1 [Compound 014, (Z)-2-(1-(3-chloro-4-hydroxy-5-methoxybenzylidene)-5-methoxy-2-methyl-1H-inden-3-yl)-N-(furan-2-ylmethyl)acetamide] |  | 5 |  |
